Among the test systems are OVCAR-8 ovarian; HCC-2998 colon; HCT-15 colon; COLO 205 colon; EKVX NSCLC; OVCAR-4 ovarian; M14 melanoma; HL-60(TB) leukemia; T-47D breast; LOX IMVI melanoma; OVCAR-3 ovarian; TK-10 renal; SK-OV-3 ovarian; 786-0 renal; SN12C renal; HT29 colon; K-562 leukemia; UACC-62 melanoma; SR leukemia; HS 578T breast.
Test in all cases: NCI-60 cell line screen, 48 h

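Each compound was tested at five concentrations against cells in 96-well plates for 48 hours. Definition used: TGI = concentration required for complete inhibition of growth.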 A value given as a limit tells only on which side of the number the result lay.

Regarding `CC1=CC(=O)C(=CN2C(=O)/C(=C\c3cccnc3)NC2=S)C(=O)O1`, the TGI with OVCAR-8 ovarian, in the assay on HCC-2998 colon, with HCT-15 colon, with COLO 205 colon, in the assay on EKVX NSCLC and in the assay on OVCAR-4 ovarian was above 100 µM throughout. Besides, the TGI in the assay with M14 melanoma, in the assay on HL-60(TB) leukemia, in the assay with T-47D breast, in the assay with LOX IMVI melanoma, in the assay on OVCAR-3 ovarian and in the assay on TK-10 renal was above 100 µM throughout. The TGI in the assay with SK-OV-3 ovarian, in the assay on 786-0 renal, with SN12C renal and in the assay on HT29 colon was above 100 µM in each case.

With `CC(=O)O[C@H]1CC[C@@]2(C)C(=C[C@H](c3ccc(O)cc3)[C@H]3[C@@H]4CC[C@H](OC(C)=O)[C@@]4(C)CC[C@@H]32)C1`, the TGI was found to be 33.8 µM in the assay with OVCAR-8 ovarian; 36.2 µM with HCC-2998 colon; 24.8 µM in the assay with HCT-15 colon; 35.2 µM in the assay with COLO 205 colon; 37.4 µM in the assay with EKVX NSCLC; 41 µM with OVCAR-4 ovarian. Moreover, the TGI is 41.3 µM with M14 melanoma; 58 µM in the assay with HL-60(TB) leukemia; 59.4 µM in the assay with K-562 leukemia; 27.1 µM with LOX IMVI melanoma; 38.8 µM in the assay with OVCAR-3 ovarian; above 100 µM in the assay on TK-10 renal. For the same compound, the TGI in the assay with SK-OV-3 ovarian is above 100 µM; in the assay with 786-0 renal it was 38.3 µM; in the assay with UACC-62 melanoma, 23 µM; in the assay with SN12C renal it was 69 µM; in the assay with HT29 colon, 26.5 µM.

As to `CC(C)[Si](OC1=C(C(=O)N(C)c2ccccc2Cl)CCCCC1)(C(C)C)C(C)C`, the TGI in the assay with OVCAR-8 ovarian, in the assay with HCT-15 colon, in the assay with COLO 205 colon, with EKVX NSCLC, in the assay on OVCAR-4 ovarian and in the assay with M14 melanoma was above 100 µM in each case. The TGI in the assay with T-47D breast, in the assay on LOX IMVI melanoma, with OVCAR-3 ovarian, with TK-10 renal, in the assay on SK-OV-3 ovarian and with 786-0 renal was above 100 µM in each case. For the same compound, the TGI in the assay with SN12C renal and with HT29 colon was above 100 µM each time.

On to `CCCCCNC(=O)c1c(O)[nH]c(=S)[nH]c1=O`, for which the TGI in the assay on OVCAR-8 ovarian, with HCT-15 colon, with COLO 205 colon, with OVCAR-4 ovarian, with M14 melanoma and in the assay with HL-60(TB) leukemia was above 100 µM each time. For the same compound, the TGI in the assay with K-562 leukemia, with LOX IMVI melanoma, in the assay with OVCAR-3 ovarian, in the assay on TK-10 renal, in the assay with SK-OV-3 ovarian and in the assay with SR leukemia was above 100 µM each time. The TGI in the assay on 786-0 renal, in the assay on UACC-62 melanoma, with SN12C renal and in the assay with HT29 colon was above 100 µM each time.

On to `Cc1sc(Nc2ccccc2[N+](=O)[O-])c(C#N)c1C`, for which the TGI in the assay with OVCAR-8 ovarian, with HCC-2998 colon, in the assay on HCT-15 colon, in the assay with COLO 205 colon, in the assay with EKVX NSCLC and in the assay on OVCAR-4 ovarian was above 100 µM each time. For the same compound, the TGI in the assay on M14 melanoma is above 100 µM; with K-562 leukemia, above 100 µM; in the assay with T-47D breast, above 100 µM; in the assay with OVCAR-3 ovarian it was 61.2 µM; with SK-OV-3 ovarian it was above 100 µM; in the assay with SR leukemia, above 100 µM. Further, the values for the TGI with 786-0 renal, in the assay with UACC-62 melanoma and with SN12C renal were 61.7 µM, above 100 µM and above 100 µM, respectively.

On to `COc1cc2c(cc1OC)-c1c(oc3cc(OC4OC(CO)C(O)C(O)C4O)c(OC)cc3c1=O)C(O)O2` (stereo not given), for which the TGI in the assay on OVCAR-8 ovarian, in the assay with HCC-2998 colon, in the assay with HCT-15 colon, in the assay with COLO 205 colon, with EKVX NSCLC and in the assay with OVCAR-4 ovarian was above 100 µM each time. In addition, the TGI with M14 melanoma, in the assay with HL-60(TB) leukemia, in the assay on K-562 leukemia, in the assay on LOX IMVI melanoma, in the assay with OVCAR-3 ovarian and in the assay with TK-10 renal was above 100 µM throughout. The TGI in the assay on SK-OV-3 ovarian, with HS 578T breast, in the assay with 786-0 renal, with UACC-62 melanoma, with SN12C renal and in the assay with HT29 colon was above 100 µM throughout.

Turning to `O=C1C2=Cc3ccccc3OC2(O)Oc2ccc(O)cc21` (stereo not given), the TGI in the assay on OVCAR-8 ovarian, with HCC-2998 colon, in the assay on HCT-15 colon, in the assay with COLO 205 colon, in the assay with EKVX NSCLC and in the assay on M14 melanoma was above 100 µM each time. Further, the TGI with K-562 leukemia was 74.1 µM; in the assay on T-47D breast, above 100 µM; with LOX IMVI melanoma, above 100 µM; with OVCAR-3 ovarian it was above 100 µM; in the assay with TK-10 renal, above 100 µM; with SK-OV-3 ovarian, above 100 µM. The TGI with 786-0 renal, with UACC-62 melanoma, in the assay with SN12C renal and with HT29 colon was above 100 µM each time.

Regarding `CC(C)n1c(=O)[nH]n(-c2ccccc2)c1=O`, the TGI with OVCAR-8 ovarian, in the assay on HCT-15 colon, in the assay on COLO 205 colon, in the assay with EKVX NSCLC, with OVCAR-4 ovarian and with M14 melanoma was above 100 µM in each case. The TGI in the assay with HL-60(TB) leukemia, with K-562 leukemia, in the assay on LOX IMVI melanoma, with OVCAR-3 ovarian, with TK-10 renal and with SK-OV-3 ovarian was above 100 µM in each case. Besides, the TGI in the assay on SR leukemia, in the assay with HS 578T breast, in the assay with 786-0 renal, in the assay on UACC-62 melanoma, in the assay on SN12C renal and with HT29 colon was above 100 µM in each case.
